Data reported in the METLIN SMRT retention time set (Domingo-Almenara et al. 2019).

Assay: gradient 5% acetonitrile 3 min, to 50% in 2 min, to 85% in 15 min, held 3 min, 100 µL/min
Conditions: column: Zorbax Extend-C18 2.1 x 50 mm; eluents: water / acetonitrile, 0.1% formic acid
How it was run: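 Pure standards were analyzed in mixtures of ~100 molecules using HPLC coupled to a quadrupole time-of-flight mass spectrometer, in both positive and negative ionization mode. Separation used a Zorbax Extend-C18 column (2.1 × 50 mm, 1.8 μm) at 100 μL/min, with water and acetonitrile each containing 0.1% formic acid. Dead and dwell volumes were 40 μL and 900 μL, and data were collected over 3 months. Retention time was read from computationally picked adduct peaks, each inspected manually.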

SMILES	RP-LC retention time [s]
Cc1c(Cl)cccc1S(=O)(=O)N1CCCC1c1nc(-c2ccc(F)cc2)no1 (centres undefined)	1220
Cc1ccc(CNC(=O)c2ccc3c(c2)Sc2ncccc2C(=O)N3C)cc1	796
CC(C)C(=O)Nc1cc2c(cc1S(=O)(=O)c1ccc(F)cc1)n(C)c(=O)n2C	790
O=c1ccn(-c2ccccc2)nc1-c1nc(-c2ccncc2)no1	649
COCCN1C(=O)c2ccccc2C(C(=O)NCc2ccc(OC)cc2)C12CCCC2 (centres undefined)	785
Cc1cc(=O)n(CC(=O)Nc2ccccc2C)c(N2CCCC2)n1	620
CCC(C)NC(=O)C1CCN(Cc2cc3ccccc3n2Cc2ccccc2Cl)CC1 (centres undefined)	784
COc1cccc(S(=O)(=O)N2[C@H]3CC[C@@H]2c2cnc(C)nc2C3)c1	692
Cc1cc(-c2nnc(-c3ccco3)o2)c(C)n1CC(=O)Nc1ccc(F)c(F)c1	909
COc1cccc(-c2ccc3nc(N4CCC(C(=O)NC5CC5)CC4)sc3n2)c1	861
CCC(C)NC(=O)N1CC(Oc2cccc(-c3nc(C)no3)c2)C1 (centres undefined)	801
O=C(NCCc1cn2c(n1)SCC2)C(=O)Nc1ccc(F)cc1	542
CCn1cccc(-c2nnc(SCC(=O)NCc3ccco3)n2C)c1=O	576
COc1ccc(Cc2nnc3sc(COc4ccc(OC)cc4)nn23)cc1	902
C[C@H]1CN(C(=O)c2ccc(F)cc2)C[C@@H]1c1nc(-c2ccccc2)no1	996
COc1ccc(-c2noc(Cn3ccnc3C)n2)cc1OC	589
O=C(Cn1c(Cc2ccccc2)nc2ccccc21)N1CCCCC1	667
CC(=O)c1sc(NC(=O)C2COc3ccccc3O2)nc1C (centres undefined)	763
CN1CCN(c2ncncc2N2CCC(C(=O)NCc3ccc(F)cc3Cl)CC2)CC1	572
Cc1ccc(-c2cc(C(=O)NCC(C)C)n(C)c2)cc1	1070
CCOc1ccc(-c2ccc3nnc(SCC(=O)Nc4nc(C)cs4)n3n2)cc1	752
CCCCN(CC)c1nc2cc(C(=O)OC)ccc2c(=O)n1-c1ccccc1	1250
CC1(C(=O)NC2CCCC2)CC(c2ccccc2)=NO1 (centres undefined)	700
O=C(c1nnn2c1COC(c1ccccc1)C2)N1CCN(C(=O)C2(c3ccccc3)CC2)CC1 (centres undefined)	850
Cc1ccc(NC(=O)c2cn(-c3cc(N(C)C)ncn3)cn2)cc1	832
CCCN1CCN(c2cc(C(=O)O)c3cc(NS(=O)(=O)c4cccc(C)c4)ccc3n2)CC1	607
COc1ccccc1-c1nc(Cn2nnc(-c3nc(-c4ccc(OC(C)C)cc4)no3)c2C)c(C)o1	1230

SMILES	RP-LC retention time [s]
CC(=O)c1c(N(C)CCO)nc2ccc(Cl)cc2c1-c1ccccc1	834
Cc1ccccc1-c1noc(Cn2ccn3nc(-c4ccc5c(c4)OCO5)cc3c2=O)n1	1040
O=C(C1CCCN(c2cnc3nccnc3c2)C1)N1CCN(c2ccccn2)CC1 (centres undefined)	568
COc1ccc(CN2C(=O)COC[C@H]2C(=O)NCc2ccco2)c(OC)c1	704
Cc1cc2nn(CC(=O)Nc3cccc(C)c3C)c(=O)n2c(-c2ccc(F)cc2)n1	849
COc1ccccc1NC(=O)N1c2ccccc2NC2=C(C(=O)CCC2)C1c1ccco1 (centres undefined)	830
CC(C)c1noc(-c2cccnc2N2CCCN(Cc3ccccc3Cl)CC2)n1	723
Cc1ccc(NC(=O)C2CCN(S(=O)(=O)c3ccc4c(c3)CCCC(=O)N4)CC2)cc1C	814
CCN1CCCC1CNC(=O)Cn1c2ccccc2c2cnn(C)c(=O)c21 (centres undefined)	554
COCCCNC(=O)c1ccc2c(c1)N=C(C)c1cc(Cl)ccc1S2	914
CCc1nn2c(CNC(=O)c3ccc(F)cc3)c(-c3ccccc3)nc2s1	914
Cc1c2ccnc(C(N)=O)c2c(C)c2c1[nH]c1ccccc12	619
Cn1cc2c3c(cccc31)CN(C(=O)c1ccc(F)cc1Cl)CC2	958
Cc1noc(-c2ccnc(-n3ncc(C(=O)N4CCN(Cc5ccccc5)CC4)c3C)c2)n1	645
CC(C)N1C(=O)c2cccnc2Sc2cc(NC(=O)c3ccco3)ccc21	776
Cc1noc2ncn(CC(=O)NCc3ccc(F)cc3)c(=O)c12	724
CCn1ccc2cc(S(=O)(=O)N3CCCC(C(=O)NCCCN4CCOCC4)C3)ccc21 (centres undefined)	648
CCOc1ccc2cccc(NC(=O)Cc3cccc(OC)c3)c2n1	1120
Cn1c(=O)c2c(nc([N+](=O)[O-])n2Cc2ccc(F)cc2)n(C)c1=O	795
O=S(=O)(Cc1ccccc1)N1CCC(OC2CCN(Cc3cccnc3)CC2)CC1	615
O=C(c1ccc(F)c(F)c1)N1CCN(c2cc(-c3cccs3)[nH]n2)CC1	758
CCCc1c(C(=O)O)nnn1-c1cccc(Cl)c1	783
CCNS(=O)(=O)c1cc(-c2nc(C)cs2)n(C)c1C	792
CNC(=O)c1cc(C(=O)c2ccc3nc(Nc4cccc(C(F)(F)F)c4)[nH]c3c2)ccn1	747
Cc1ccc(CNC(=O)c2ccc(CN3CCN(C4CCCC4)C(=O)C3=O)cc2)o1	728
O=C(c1cnccn1)N1CCCC1c1noc(CO)n1 (centres undefined)	572

Further lines, results first:

RP-LC retention time [s]	SMILES
1010	COc1ccccc1-c1noc(Cn2cnc3c(cnn3-c3ccc(Cl)cc3)c2=O)n1
1280	Cn1nccc1C(=O)Nc1sccc1-c1nc2ccccc2s1
766	CC1(C(=O)NC2CCCCC2)Cn2c(ccc2-c2ccco2)C(=O)N1Cc1ccccn1 (centres undefined)
854	O=C(Cc1cccc(F)c1)N1CCN(C(=O)c2nnn3c2COC(c2ccccc2)C3)CC1 (centres undefined)
988	CCCN1C(=O)c2cc(S(=O)(=O)NCc3cccs3)ccc2Oc2cccnc21
614	CC(C)n1c(CNC(=O)C2CC(=O)N(c3n[nH]c4ccccc34)C2)nc2ccccc21 (centres undefined)
878	CCn1ncn2cc(S(=O)(=O)NCc3ccc(Cl)cc3)cc2c1=O
778	Cc1nc2c(NS(=O)(=O)c3ccc(Cl)cc3)cccn2n1
755	O=C(NCC1CCOCC1)Nc1cc(F)c(F)c(F)c1
1130	Cc1cc(C)cc(-n2ccn(Cc3nc(-c4ccc(C(C)(C)C)cc4)no3)c(=O)c2=O)c1
1420	Cc1sc(-c2nc(C(C)C)cs2)cc1S(=O)(=O)N1CCN(c2ccccc2)CC1
846	CCc1cc(=O)n(CC(=O)Nc2cccc(SC)c2)c(N2CCOCC2)n1
696	CC(C)Oc1ccc(CN2CC(c3nc(-c4ccsc4)nn3C)C2)cc1
594	CN1C(=O)C2CCCCN2c2ccc(C(=O)NCCCN3CCN(C4CCCCC4)CC3)cc21 (centres undefined)
812	CCOC(=O)c1[nH]c(C)c(CCC(=O)N2CCC(C(=O)NCCc3ccccc3OC)CC2)c1C
647	CC(C)CN1CCn2cc(C(=O)NCc3ccc(F)c(Cl)c3)nc2C1
784	COc1ccccc1CCNC(=O)CSC1CCc2ccccc2NC1=O (centres undefined)
747	CCCNC(=O)C1CCN(S(C)(=O)=O)c2cc(Cl)ccc2O1 (centres undefined)

RP-LC retention time [s]	SMILES
627	COCCNC(=O)N1CCN(c2ncccc2-c2nnc(C(C)C)o2)CC1
602	COc1cccc(CNC(=O)c2cc3ccncc3n2C)c1OC
858	CCS(=O)(=O)N1CCCc2cc(C(=O)Nc3ccc4c(c3)OCCO4)ccc21
660	CCN(CCN(C)C)C(=O)c1cc2c(s1)-c1ccc(Cl)cc1S(=O)(=O)C2
888	O=C(c1ccc(Cl)cc1)N1CCN(C(=O)c2nnn3c2COC(c2ccccc2)C3)CC1 (centres undefined)
1260	COc1ccc(-c2noc(CN3N=NC4C(=O)N(c5cccc(F)c5)C(=O)C43)n2)cc1OC (centres undefined)
665	CNC(=O)C1CCCN(C(=O)Nc2ccc(NC(=O)Nc3ccc(F)cc3)cc2)C1 (centres undefined)
888	COc1cccc2c1OC1(C)CC2C(S(=O)(=O)c2ccc(C)c(C)c2)C(=O)N1 (centres undefined)
887	Cc1ccc(S(=O)(=O)CCc2noc(-c3cccc4[nH]ccc34)n2)cc1
935	C[C@@H]1CN(C(=O)c2ccsc2)C[C@H]1c1nc(-c2ccccc2)no1
1160	COc1cccc(-n2c(=O)c(C(=O)NCCc3cccs3)c(O)c3cccnc32)c1
718	CCn1nc(-c2ccc(C)c(S(=O)(=O)N3CCC(C(N)=O)CC3)c2)c2c(c1=O)CCCC2
741	Cc1ccc(NC(=O)C2CC(=O)N(c3ccc4oc(C)nc4c3)C2)c(F)c1 (centres undefined)
653	CNCc1ccc(-c2cc(Cl)ccc2Cl)o1
655	O=S(=O)(c1ccc2c(c1)OCCO2)N(CCc1cccs1)Cc1cccnc1
901	Cc1ccc(CNc2c(-c3cccc(Cl)c3)nc3ncccn23)cc1
1160	Fc1ccccc1-c1noc(-c2nnn3c2COC(c2ccc(Cl)cc2)C3)n1 (centres undefined)
816	Cc1cccc(NS(=O)(=O)c2cc3n(c2)CCN(C(C)C)C3=O)c1C
